One assay deals with ECC10. The assay can be described thus: cells. In kind it is functional, cell-based, Homo sapiens. To be noted: Homo sapiens, ECC10.
Another assay concerns H9. The assay can be described thus: cells. It counts as functional, cell-based, Homo sapiens. The conditions noted are these: Homo sapiens, H9.
A further assay has as its system LU-135. Kind of assay: cells. In kind it is functional, cell-based, Homo sapiens. To be noted: Homo sapiens, LU-135.
In a further assay the test system is NBsusSR. Kind of assay: cells. It counts as functional, cell-based, Homo sapiens. The conditions noted are these: Homo sapiens, NBsusSR.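 Note: growth inhibition of the human cell line, read out with a cell viability assay.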
Another assay deals with RH-18. Kind of assay: cells. It counts as functional, cell-based, Homo sapiens. The conditions noted are these: Homo sapiens, Rh18.
A further assay has as its system SW900. The assay can be described thus: cells. In kind it is functional, cell-based, Homo sapiens. The conditions noted are these: Homo sapiens, SW900.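 Note: IC50 is the concentration that inhibits SW900 cell growth, measured by a cell viability assay.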
For another assay, the system named is BALL-1. Kind of assay: cells. In kind it is functional, cell-based, Homo sapiens. To be noted: Homo sapiens, BALL-1.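 Note: growth inhibition of BALL-1 cells, read out with a cell viability assay.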
A further assay has as its system TGBC11TKB. Kind of assay: cells. To be noted: Homo sapiens, TGBC11TKB. In kind it is functional, cell-based, Homo sapiens.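 Note: growth inhibition of human TGBC11TKB cells, measured by a cell viability assay.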
In another assay the test system is CHP-134. Kind of assay: SANGER: Inhibition of human CHP-134 cell growth in a cell viability assay. In kind it is functional, cell-based.
In the next assay the test system is Caov-3 cell line. Kind of assay: cells. It counts as functional, cell-based, Homo sapiens. To be noted: Homo sapiens, Caov-3.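 Note: cell growth inhibition read out by a viability assay.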
The next assay concerns Caov-4. The assay can be described thus: cells. In kind it is functional, cell-based. The conditions noted are these: Homo sapiens.
Another assay relates to DV-90. The assay can be described thus: cells. In kind it is functional, cell-based, Homo sapiens. To be noted: Homo sapiens, DV-90.
A further assay has as its system ECC12. The assay can be described thus: cells. To be noted: Homo sapiens. It counts as functional, cell-based.
Another assay has as its system MES-SA. Kind of assay: cells. In kind it is functional, cell-based, Homo sapiens. To be noted: Homo sapiens, MES-SA.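 Note: growth inhibition of human MES-SA cells, read out with a cell viability assay.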
For the next assay, the system named is NCI-H1734. The assay can be described thus: cells. To be noted: Homo sapiens, NCI-H1734. In kind it is functional, cell-based, Homo sapiens.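 Note: growth inhibition of human NCI-H1734 cells, read out with a cell viability assay.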
For the next assay, the system named is PLC-PRF-5. The assay can be described thus: cells. In kind it is functional, cell-based, Homo sapiens. The conditions noted are these: Homo sapiens, PLC-PRF-5.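 Note: growth inhibition of human PLC-PRF-5 cells, read out with a viability assay.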
The test system of a further assay is RT-4. Kind of assay: SANGER: Inhibition of human RT4 cell growth in a cell viability assay. In kind it is functional, cell-based. The conditions noted are these: Homo sapiens, RT-4.
The next assay relates to SNG-M. Kind of assay: cells. In kind it is functional, cell-based, Homo sapiens. To be noted: Homo sapiens, SNG-M.
In the next assay the test system is C-4-II. Kind of assay: SANGER: Inhibition of human C-4-II cell growth in a cell viability assay. It counts as functional, cell-based. To be noted: Homo sapiens, C-4-II.
The next assay concerns TT. Kind of assay: cells. The conditions noted are these: Homo sapiens, TT. In kind it is functional, cell-based, Homo sapiens.
Another assay has as its system CCF-STTG1. The assay can be described thus: cells. It counts as functional, cell-based, Homo sapiens. To be noted: Homo sapiens, CCF-STTG1.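 Note: growth inhibition of human CCF-STTG1 cells, determined with a cell viability read-out.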
For the next assay, the system named is NCI-H128. Kind of assay: SANGER: Inhibition of human NCI-H128 cell growth in a cell viability assay. In kind it is functional, cell-based.
In the next assay the test system is NCI-H2107. Kind of assay: SANGER: Inhibition of human NCI-H2107 cell growth in a cell viability assay. In kind it is functional, cell-based.
The subject of a further assay is NCI-H378. Kind of assay: SANGER: Inhibition of human NCI-H378 cell growth in a cell viability assay. It counts as functional, cell-based.
The next assay concerns TC-YIK. Kind of assay: SANGER: Inhibition of human TC-YIK cell growth in a cell viability assay. In kind it is functional, cell-based.
The next assay deals with SK-MEL-5. Kind of assay: SANGER: Inhibition of human SK-MEL-5 cell growth in a cell viability assay. It counts as functional, cell-based.
In a further assay the test system is SK-MG-1. Kind of assay: SANGER: Inhibition of human SK-MG-1 cell growth in a cell viability assay. It counts as functional, cell-based.

Description for BALL-1: SANGER: Inhibition of human BALL-1 cell growth in a cell viability assay.
Description for CCF-STTG1: SANGER: Inhibition of human CCF-STTG1 cell growth in a cell viability assay.
Description for Caov-3 cell line: SANGER: Inhibition of human Caov-3 cell growth in a cell viability assay.
Description for Caov-4: SANGER: Inhibition of human Caov-4 cell growth in a cell viability assay.
Description for DV-90: SANGER: Inhibition of human DV-90 cell growth in a cell viability assay.
Description for ECC10: SANGER: Inhibition of human ECC10 cell growth in a cell viability assay.
Description for ECC12: SANGER: Inhibition of human ECC12 cell growth in a cell viability assay.
Description for H9: SANGER: Inhibition of human H9 cell growth in a cell viability assay.
Description for LU-135: SANGER: Inhibition of human LU-135 cell growth in a cell viability assay.
Description for MES-SA: SANGER: Inhibition of human MES-SA cell growth in a cell viability assay.
Description for NBsusSR: SANGER: Inhibition of human NBsusSR cell growth in a cell viability assay.
Description for NCI-H1734: SANGER: Inhibition of human NCI-H1734 cell growth in a cell viability assay.
Description for PLC-PRF-5: SANGER: Inhibition of human PLC-PRF-5 cell growth in a cell viability assay.
Description for RH-18: SANGER: Inhibition of human RH-18 cell growth in a cell viability assay.
Description for SNG-M: SANGER: Inhibition of human SNG-M cell growth in a cell viability assay.
Description for SW900: SANGER: Inhibition of human SW900 cell growth in a cell viability assay.
Description for TGBC11TKB: SANGER: Inhibition of human TGBC11TKB cell growth in a cell viability assay.

For `CC1(C)CNc2cc(NC(=O)c3cccnc3NCc3ccncc3)ccc21` [MOTESANIB], the IC50 in the assay on ECC10, in the assay with H9, in the assay with LU-135, in the assay on NBsusSR, with RH-18 and in the assay on SW900 was > 2 µM throughout. Further, the IC50 with BALL-1, in the assay with TGBC11TKB and in the assay on CHP-134 was > 2 µM throughout.

With `N#Cc1c(O)c2c(-c3ccc(-c4ccccc4O)cc3)csc2[nH]c1=O`, the IC50 in the assay with Caov-3 cell line, in the assay with Caov-4, in the assay on DV-90, in the assay with ECC12, in the assay with MES-SA and in the assay on NCI-H1734 was > 1.02 µM each time. The IC50 with PLC-PRF-5, in the assay with RT-4, in the assay on SNG-M, in the assay with C-4-II, with TT and with CCF-STTG1 was > 1.02 µM each time.

For the molecule `C#Cc1cccc(Nc2ncnc3cc(OCCOC)c(OCCOC)cc23)c1` [ERLOTINIB], the figures for the IC50 with ECC12, with NCI-H128 and with NCI-H2107 were 0.0805 µM, > 2 µM and > 2 µM, respectively.

Take `Cn1cnc2c(F)c(Nc3ccc(Br)cc3Cl)c(C(=O)NOCCO)cc21` [SELUMETINIB]: the IC50 is > 4 µM in the assay on ECC10; 0.0229 µM in the assay on H9; > 4 µM with LU-135; > 4 µM in the assay with NBsusSR; > 4 µM with RH-18; > 4 µM with BALL-1. The IC50 in the assay on TGBC11TKB and in the assay with CHP-134 was > 4 µM each time.

For `CC(C)CCN1c2nc(Nc3cc(F)c(O)c(F)c3)ncc2N(C)C(=O)C1C` (configuration not stated), the IC50 with ECC10 was 0.701 µM; in the assay with H9, 0.0602 µM; with LU-135, > 5 µM; in the assay on NBsusSR it was 1.83 µM; with RH-18, > 5 µM; with SW900, > 5 µM. The IC50 in the assay with BALL-1 is > 5 µM; in the assay on TGBC11TKB, > 5 µM; in the assay on CHP-134, 3.49 µM.

With `COc1cc2ncn(-c3cc(OCc4ccccc4S(C)(=O)=O)c(C#N)s3)c2cc1OC` [GSK-319347A], the IC50 with ECC12, in the assay with NCI-H128, in the assay on NCI-H378 and with TC-YIK was > 5 µM each time.

As for `COc1cc(N2CCN(C)CC2)ccc1Nc1ncc2c(n1)N(C)c1ccccc1C(=O)N2C`, the IC50 in the assay on ECC12, in the assay with NCI-H128 and in the assay with NCI-H2107 was > 8 µM each time.

Consider `CCN(CC)CCCCNc1ncc2cc(-c3cc(OC)cc(OC)c3)c(NC(=O)NC(C)(C)C)nc2n1` [PD-173074], for which the IC50 in the assay on ECC10 was 0.339 µM; in the assay on H9, > 2 µM; with LU-135, > 2 µM; with NBsusSR, > 2 µM; in the assay on RH-18, > 2 µM; in the assay with SW900, > 2 µM. The IC50 in the assay with BALL-1, in the assay on TGBC11TKB and with CHP-134 was > 2 µM in each case.

`CC(C)c1ccccc1Cc1cc(C(=O)Nc2ccc(S(=O)(=O)c3ccccc3C(C)(C)C)cc2)c(O)c(O)c1O`: the IC50 in the assay on MES-SA came out at 1.11 µM; in the assay on RH-18, 1.07 µM; with RT-4 it was 10.6 µM; in the assay with SK-MEL-5 it was 0.0692 µM; with SK-MG-1, 2.58 µM; in the assay on SW900, 2.77 µM.

As for `COc1cc2c(Nc3ccc(NC(=O)c4ccccc4)cc3)ncnc2cc1OCCCN1CCOCC1`, the IC50 in the assay on ECC10 is 1.63 µM; with H9 it was 0.93 µM; with LU-135, 2.66 µM; in the assay on NBsusSR it was 0.914 µM; in the assay on RH-18, > 4 µM; with SW900 it was > 4 µM. Also, the IC50 with BALL-1 is > 4 µM; with TGBC11TKB, > 4 µM; in the assay with CHP-134, 1.23 µM.

The values are drawn from ChEMBL document CHEMBL1201861, “Genomics of Drug Sensitity in Cancer screening data, Wellcome Trust Sanger Institute”.
